Experimental data taken from patent publication US20110003013A1, “METHOD OF INCREASING METABOLISM” (GARVAN INSTITUTE OF MEDICAL RESEARCH, priority 2008, published 2011).
“Also recorded” adds a separate entry of the source.

Legend:
[1] = system: AKT2, IRS1, IRS2, PFK, GLUT2, HSL, LPL; assay: Liver gene expression by quantitative real-time PCR; assay type: in vivo, C57Bl/6 mice; conditions: vs control
Source text: Tissues were homogenized in extraction buffer and RNA was isolated according to the RNeasy Kit protocol. […] The level of mRNA for each gene was normalized to the level of TATA box binding-protein (TBP) mRNA in each sample.

[2] = Fasting plasma insulin and glucose stimulated insulin secretion (GSIS); assay type: in vivo, C57Bl/6 mice
Method: (§1) Each mouse was weighed weekly and the blood glucose levels assessed at random times every second week alternating with rectal temperatures. Intraperitoneal Glucose Tolerance Testing (IPGTT) was carried out at week 5 and 21 using 2g glucose/kg dose. Insulin Tolerance Testing (ITT) was carried at week 2 (0.33 U/kg) and week 6 (0.50 U/kg). Glucose Stimulated Insulin Secretion (GSIS)(3g glucose/kg) was studied out at week 7. Food intake studies were carried out at weeks 0, 4, 8 and 25. Indirect calorimetry was performed using the Oxymax System (Columbus Instruments, Columbus, Ohio) at weeks 0, 4, 8 and 25. Measurements were taken over a 12-hour light cycle and a 12-hour dark cycle.
(§2) Plasma insulin was measured with ELISA kits. Liver transaminases and plasma lipids were performed by Sydpath Pathology, St Vincent's Hospital. Liver triglycerides were extracted using methanol/chloroform 2:1 and detected using colorimetric assay.

[3] = Blood and liver safety parameters (haemoglobin, white blood counts, transaminases, serum iron); assay type: in vivo, C57Bl/6 mice; conditions: vs control mice
Method: as §2

[4] = Body weight of mice on high fat diet with DFS; assay type: in vivo, C57Bl/6 mice; conditions: Studies 1-4, vs control mice, from about 3 to about 10 weeks after commencement
Method: Four studies were performed using C57Bl/6 mice. Study 1 included 30 control mice and 30 mice administered DFS. Study 2 included 30 control mice and 30 mice administered DFS. Study 3 included 8 control mice and 8 mice administered DFS. Study 4 included 18 control mice and 18 mice administered DFS. Mice in Study 3 differed to those in studies 1 and 2 in so far as they were sourced from different colonies.
Mice were randomly separated equally into a treatment group receiving Deferasirox (DFS) or a control group (CON). DFS was powdered using a mortar and pestle and mixed in thoroughly with the dry mineral mix prior to the addition of melted lard and then left to harden overnight in the refrigerator to form high-fat diet (HFD). From 6 weeks of age for up to 25 weeks, the mice were then fed ad libitum this HFD, from which 45% of their calories were derived from animal lard.
Each mouse was weighed weekly and the blood glucose levels assessed at random times every second week alternating with rectal temperatures. Intraperitoneal Glucose Tolerance Testing (IPGTT) was carried out at week 5 and 21 using 2g glucose/kg dose. Insulin Tolerance Testing (ITT) was carried at week 2 (0.33 U/kg) and week 6 (0.50 U/kg). Glucose Stimulated Insulin Secretion (GSIS)(3g glucose/kg) was studied out at week 7. Food intake studies were carried out at weeks 0, 4, 8 and 25. […]

[5] = Indirect calorimetry (Oxymax): VO2, VCO2, RER, heat, activity; assay type: in vivo, C57Bl/6 mice
Method: as §1
Mice were placed with ad libitum food and water in separate chambers in an 8 chamber, indirect open circuit calorimeter (Columbus Oxymax Respirometer 0246-002M, Columbus Instruments Ohio USA) for 36-48 hours. This machine obtains periodic measurements of the percentage of oxygen and carbon dioxide in the test chamber. Changes in gas concentrations are used to calculate the rate of oxygen consumption (VO2) and carbon dioxide production (VCO2) per mouse, with a readout every 27 minutes (Oxymax Software 0246-102M). The software calculates heat production per mouse and the respiratory exchange ratio (RER) (VCO2/VO2) using VO2 and VCO2. Activity levels were simultaneously measured in 2 dimensions (Opto-M3 activity meter) using […] wavelength light beams. Ambulatory movements were registered when more than one light beams in the same axis were crossed by an animal in a given period of time. The last 24 hours of data were analysed to allow for an acclimatisation period.
The hourly mean VO2 and VCO2 (mL/hr/kg total body weight) were calculated by averaging the VO2 and VCO2 readings produced by the Oxymax software for each hour. VO2 and VCO2 per unit of lean body mass (VXX2LM) was calculated from the Oxymax results (VXX2) using the following equation: […]
The hourly mean RER and the total, light and dark RER were calculated in a similar manner to VO2 and VCO2. No adjustment for body weight was required.
Heat (total energy expenditure, kcal/hr/mouse) was calculated by the Oxymax software using the formula:
Heat=CV (calorific value)*VO2 where CV=3.815+(1.232*RER)
The hourly mean heat production and the total, light and dark heat production were calculated in a similar manner to VO2 and VCO2. Heat production per unit of lean body mass was calculated by dividing the Oxymax reading by unit of lean body mass.
To quantify activity levels, the total number of ambulatory movements in the x axis and the y axis was calculated per unit time for each mouse.
Oxymax data were analysed using t-tests.

[6] = Blood glucose levels assessed at random times; assay type: in vivo, C57Bl/6 mice; conditions: over 9 weeks of high fat diet, vs CON mice
Method: as §1

[7] = Intraperitoneal glucose tolerance test; assay type: in vivo, C57Bl/6 mice; conditions: 2 g glucose/kg i.p., vs CON mice
Method: as §1
Mice were fasted overnight for 16 hours. Glucose was administered at a dose of 2g/kg by intraperitoneal injection in the form of a 20% dextrose solution. Blood glucose was measured via glucometer (Accucheck Advantage II, Roche, Australia) prior to, and at 15, 30, 60, 90 and 120 minutes after the dextrose injection.
Mice were fasted for 6 hours before intraperitoneal administration of glucose (2 g/kg dose) in sterile water. Blood glucose was measured by glucometer at the times indicated.

[8] = HFD-induced hepatic lipid accumulation (steatosis); assay type: in vivo, C57Bl/6 mice; conditions: 10 weeks on HFD, vs CON mice, data not shown
Method: (§3) Mice livers were fixed in 10% buffered formaldehyde, embedded in paraffin and slides were prepared using standard haematoxylin and eosin as well as Perl staining to visualize hepatic iron.
as §2

[9] = Iron levels in the liver; assay type: in vivo, C57Bl/6 mice; conditions: vs CON mice, data not shown
Method: as §3

[10] = Insulin tolerance test; assay type: in vivo, C57Bl/6 mice
Method: as §1
Mice were fasted overnight for 16 hours. Insulin was injected at 0.5 units per kg (diluted in 1× PBS with 1% bovine serum albumin) by intraperitoneal injection. Blood glucose was measured via glucometer prior to, and at 10, 20, 30, 45 and 60 minutes after the insulin injection.

[11] = Body weight of ob/ob mice on chow diet with DFS; assay type: in vivo; conditions: vs control ob/ob mice
Method: Studies were also performed using ob/ob mice, in particular, 5 ob/ob controls and 5ob/ob mice administered DFS. Wild type C57bl/6 mice were also used as controls, 4 untreated and 4 administered DFS.

[12] = Weight of visceral, white and brown adipose tissue; assay type: in vivo, C57Bl/6 mice; conditions: high fat diet, vs control mice
[13] = system: HIF-1α; assay: Western blot of liver lysates for HIF-1α; assay type: in vivo, C57Bl/6 mice; conditions: vs control
Method: Fresh tissues were removed rapidly from culled animals and kept frozen in the −80° C. freezer. They were then homogenized in lysis buffer and sonicated in cold RIPA buffer ([…] pH 7.4, 1% NP40, 0.25% sodium deoxycholate, […], 1 mM EDTA, 1 mM PMSF and protease inhibitor cocktail). 121 μg of protein sample was resolved on an 8% SDS PAGE gel. Proteins were transferred onto nitrocellulose membrane. Primary antibodies (HIF-1α, and (β-tubulin) were prepared in milk buffers at concentrations of 1:500 and 1:2000 respectively and the membrane was incubated overnight at 4° C. Membranes were then rinsed with Phosphate Buffered Solution containing Tween and HRP-conjugated secondary antibodies (at 1:1000 dilution). Proteins were visualised using enhanced chemiluminescence.

[14] = Food intake studies; assay type: in vivo, C57Bl/6 mice
Method: as §1

SMILES: O=C(O)c1ccc(-n2nc(-c3ccccc3O)nc2-c2ccccc2O)cc1 [DFS, 4-[3,5-Bis (2-hydroxyphenyl)-1H-1,2,4-triazol-1-yl]-benzoic acid]
- AKT2 gene expression ([1]; normalized to TBP mRNA): significantly increased
- IRS1 gene expression ([1]; normalized to TBP mRNA): significantly increased; also recorded: increased expression
- IRS2 gene expression ([1]; normalized to TBP mRNA): significantly increased
- PFK gene expression ([1]; normalized to TBP mRNA): significantly increased
- GLUT2 expression [1]: trend for improved
- hormone sensitive lipase (HSL) gene expression [1]: significantly increased; also recorded: increased expression
- lipoprotein lipase (LPL) gene expression [1]: significantly increased; also recorded: increased expression
- mean fasting insulin levels vs control ([2]; high fat diet, p<0.005): significantly lower
- fasting insulin levels ([2]; high fat diet, mean + SEM, p=0.005 vs control): 2837+874 pmol/L
- glucose stimulated insulin secretion (GSIS) profile ([2]; week 7, 3 g glucose/kg, vs control): better preservation
- haemoglobin levels / anaemia [3]: does not result in anaemia; also recorded: No significant difference
- serum alanine transaminase levels [3]: No significant difference
- serum aspartate aminotransferase levels [3]: No significant difference
- serum iron levels [3]: No significant difference
- significantly reduced liver function [3]: does not result in
- white blood counts [3]: No significant difference
- body weight / weight gain [4]: significantly reduced body weights; also recorded: decreases weight gain
- oxygen consumption (VO2) ([5]; after 8 weeks of high fat diet and DFS, vs control mice): significantly increased; also recorded: consume significantly more oxygen than control mice
- oxygen consumption (VO2) ([5]; after 25 weeks of high fat diet and DFS, vs control mice): significantly increased; also recorded: consume significantly more oxygen than control mice
- metabolic rate ([5]; high fat diet, vs control mice): significantly higher metabolic rate
- respiratory exchange ratio (RER) (VCO2/VO2) ([5]; high fat diet, vs control mice): significantly reduced
- energy expenditure (EE) or heat production ([5]; over a day, high fat diet, vs control mice): significantly higher energy expenditure
- oxygen consumption (VO2) / baseline metabolic rate ([5]; week 0 (initial week of high fat diet and DFS), vs control mice): similar; also recorded: no significant difference
- CO2 production ([5]; week 8 of continuous DFS treatment, vs control mice): significantly increased
- CO2 production ([5]; week 25 of continuous DFS treatment, vs control mice): significantly increased
- blood glucose levels at random times [6]: generally had lower blood glucose levels; also recorded: significantly lower blood glucose levels
- glucose tolerance ([7]; 21 weeks of high fat diet): continued beyond at least week 21; also recorded: significantly improved insulin tolerance
- glucose tolerance ([7]; five weeks of high fat diet): significantly better glucose tolerance; also recorded: significantly improved glucose tolerance
- macroscopic hepatic steatosis [8]: relatively protected
- liver iron levels [9]: lower iron levels
- insulin tolerance (ITT) ([10]; following five weeks of high fat diet, vs CON mice): performed significantly better; also recorded: significantly improved insulin tolerance
- proportion of animals with glucoses <2 mmol/L ([10]; vs 38% of controls, p<0.001, indicating improved insulin sensitivity, data not shown): About 80%
- weight gained over an eight week period ([11]; ob/ob mice on chow diet, p<0.0005): significantly lower; also recorded: gained significantly less weight
- body weight ([11]; ob/ob mice on normal chow diet): reduced body weight (or reduced body weight increase)
- weight of brown adipose tissue (BAT) [12]: unchanged
- weight of visceral adipose tissue (VAT) [12]: reduced; also recorded: significantly lighter
- weight of white adipose tissue (WAT) [12]: reduced; also recorded: significantly lighter
- level of HIF-1α relative to β-tubulin [13]: increased HIF-1α; also recorded: higher levels of HIF-1α
- food consumed adjusted per body weight ([14]; by 25 weeks, HFD, vs CON mice): eaten more HFD adjusted per body weight; also recorded: consumed significantly more food per gram of body weight
- feed intake ([14]; week 0, vs CON animals): did not differ

SMILES: CC(=O)N(O)CCCCCNC(=O)CCC(=O)N(O)CCCCCNC(=O)CCC(=O)N(O)CCCCCN [DFO]
- metabolism in a subject ([5]; summary statement of the inventors' work): capable of increasing metabolism
